This test addresses T1, human serum albumin (HSA) (Homo sapiens, UniProt P02768).
T1 construct: gene ALB
Kind of test: fluorescence titration (one-site fit), Job's plot […], site-marker displacement. In kind it is binding.

Data on one compound can be found in PMC6928863, “Development of Human Serum Albumin Selective Fluorescent Probe Using Thieno[3,2-b]pyridine-5(4H)-one Fluorophore Derivatives” (Sensors (Basel, Switzerland), 2019).

T1 sequence (P02768 25-609): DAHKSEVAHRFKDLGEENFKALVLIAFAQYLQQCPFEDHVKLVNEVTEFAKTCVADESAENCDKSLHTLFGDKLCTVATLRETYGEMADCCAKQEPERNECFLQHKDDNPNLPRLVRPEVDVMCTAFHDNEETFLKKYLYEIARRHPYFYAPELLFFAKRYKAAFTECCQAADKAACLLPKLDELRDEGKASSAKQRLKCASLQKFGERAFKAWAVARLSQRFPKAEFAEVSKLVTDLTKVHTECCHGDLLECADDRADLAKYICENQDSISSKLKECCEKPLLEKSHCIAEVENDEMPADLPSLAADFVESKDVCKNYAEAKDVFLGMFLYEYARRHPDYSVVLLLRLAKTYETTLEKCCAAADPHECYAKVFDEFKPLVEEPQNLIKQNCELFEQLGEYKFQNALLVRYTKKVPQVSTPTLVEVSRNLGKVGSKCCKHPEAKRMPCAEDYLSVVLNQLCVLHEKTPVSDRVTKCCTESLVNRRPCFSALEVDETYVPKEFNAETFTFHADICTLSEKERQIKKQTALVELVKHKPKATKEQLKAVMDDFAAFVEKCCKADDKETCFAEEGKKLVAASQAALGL

`CCN(CC)c1ccc(-c2cc3c(s2)c(C(=O)O)cc(=O)n3C)cc1` [compound 4, KF 4] yielded a Kd of 5.4 µM.

What is called Kd is the free concentration of one partner at which half of the binding sites on the other are occupied at equilibrium, for simple one-to-one binding.
